Data: patent US11072585B2 (PharmAkea, Inc., priority 2015, dated 2021)
Structures can show the parent of a compound that is named as a salt.

Tests used:
human LOXL2 = human LOXL2 (Homo sapiens (Human), UniProt Q9Y4K0); test: Human LOXL2 amine oxidase activity assay (Amplex Red); type: biochemical; conditions: concentrated conditioned media from CHO cells stably expressing human LOXL2; 2 h at 37° C. with compound; DAP substrate
Procedure, shortened: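 Concentrated conditioned medium from CHO cells stably expressing human LOXL2 was preincubated with compound for 2 h at 37 °C in 50 mM borate, pH 8. 1,5-diaminopentane substrate and Amplex Red/HRP were then added. Fluorescence (544/590) was read kinetically every 2 min for 1 h, with activity taken from the linear slope.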

[1] = system: bleomycin-induced lung fibrosis in C57Bl/6 male mice; test: Mouse oropharyngeal bleomycin model of lung fibrosis; type: in vivo; conditions: for efficacy in bleomycin lung fibrosis model, prophylactic dosing: dosed prophylactically at 60 mg/kg p.o.; for efficacy in bleomycin lung fibrosis model, therapeutic dosing: dosed therapeutically at 60 mg/kg p.o.
Description: Example B-3: Mouse Oropharyngeal Bleomycin Model of Lung Fibrosis
Lung fibrosis is induced in C57Bl/6 male mice by administering bleomycin (0.1-4 U/kg) via oropharyngeal instillation. Mice are either pretreated with vehicle or test compound (1 day to 1 hour) orally, intraperitoneally, intravenously or subcutaneously before bleomycin installation (prophylactic dosing) or 7-14 days post bleomycin instillation (therapeutic dosing). The route and frequency of dosing are based on previously determined pharmacokinetic properties for the LOXL2 inhibitor in mouse. After bleomycin instillation animals are monitored daily for weight loss and clinical signs for 14-28 days prior to sacrifice. Animals are euthanized at study termination and weighed and blood (for isolation of plasma) and bronchoalveolar lavage are collected and frozen for subsequent analyses. Lungs are removed, weighed, then either inflated and fixed by instillation of 10% formalin and prepared for histological examination or homogenized in 1 ml PBS for collagen determination using a hydroxyproline assay. For histological examination, lung slices are stained with Masson's trichrome or Picro-Sirius red to measure cross-linked collagen as an indicator of fibrosis and an Ashcroft score of lung fibrotic and inflammatory damage determined. In addition, immunohistochemistry of fibrotic proteins such as a-smooth muscle actin can be recorded. For lung hydroxyproline content, 0.5 ml of the lung homogenate is removed and added to 0.5 ml 12 N HCl and the samples heated at 120° C. overnight. After the acid hydrolysis, 25-100 μl of the supernatant is dried down, resuspended in 25 μl water and the hydroxyproline content determined by the addition of 0.5 ml Chloramine T solution (140 mg Chloramine T in 6.5 ml ddH2O+1 ml n-propanol+2.5 ml 1M sodium acetate) and incubation at room temperature for 20 min. After the incubation, 0.5 ml Erlich's solution (1.48 g of 4-(dimethylamino(benzaldehyde) in 7 ml n-propanol+2.88 ml 60% perchloric acid and 0.12 ml ddH2O) is added and incubated at 65° C. for 15 min before reading the absorbance at 550 nm. The concentration of hydroxyproline in each […] is determined from a hydroxyproline (purchased from Sigma) standard curve.

Chain of human LOXL2 (Q9Y4K0 26-774): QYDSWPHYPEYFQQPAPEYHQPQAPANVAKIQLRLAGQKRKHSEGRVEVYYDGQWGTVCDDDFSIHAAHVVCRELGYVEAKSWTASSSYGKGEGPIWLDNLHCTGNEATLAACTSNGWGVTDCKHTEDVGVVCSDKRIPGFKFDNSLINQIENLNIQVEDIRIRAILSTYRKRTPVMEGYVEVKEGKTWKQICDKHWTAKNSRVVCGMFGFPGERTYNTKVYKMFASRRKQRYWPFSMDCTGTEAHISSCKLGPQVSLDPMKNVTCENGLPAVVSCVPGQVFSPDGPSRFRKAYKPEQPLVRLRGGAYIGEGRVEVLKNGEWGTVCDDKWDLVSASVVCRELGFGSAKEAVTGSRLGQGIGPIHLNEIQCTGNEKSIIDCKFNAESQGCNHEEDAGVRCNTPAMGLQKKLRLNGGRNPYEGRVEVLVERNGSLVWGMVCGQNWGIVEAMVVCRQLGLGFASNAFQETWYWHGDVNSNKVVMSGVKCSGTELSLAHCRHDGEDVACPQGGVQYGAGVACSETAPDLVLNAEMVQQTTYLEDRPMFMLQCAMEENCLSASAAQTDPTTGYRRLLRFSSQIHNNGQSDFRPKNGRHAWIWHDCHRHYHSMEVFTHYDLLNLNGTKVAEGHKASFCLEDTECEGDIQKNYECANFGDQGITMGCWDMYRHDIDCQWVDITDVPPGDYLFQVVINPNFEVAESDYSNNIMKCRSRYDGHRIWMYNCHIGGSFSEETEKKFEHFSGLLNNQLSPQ

SMILES	IC50 (human LOXL2) [µM]	efficacy in bleomycin lung fibrosis model, prophylactic dosing [1]	efficacy in bleomycin lung fibrosis model, therapeutic dosing [1]
Cl.NCc1cc(Oc2cccc(C(=O)NCCn3cnnn3)c2)nc(C(F)(F)F)c1 [Compound 1-15, N-(2-(1H-Tetrazol-1-yl)ethyl)-3-((4-(aminomethyl)-6-(trifluoromethyl)pyridin-2-yl)oxy)benzamide hydrochloride]	< 0.3	efficacious	
Cl.NCc1cc(Oc2cccc(C(=O)Nc3ccccc3)c2)nc(C(F)(F)F)c1 [Compound 1-7, 3-((4-(Aminomethyl)-6-(trifluoromethyl)pyridin-2-yl)oxy)-N-phenylbenzamide hydrochloride]	< 0.3	efficacious	
Cl.NCc1cc(Oc2cccc(C(=O)N3C[C@@H](O)[C@H](F)C3)c2)nc(C(F)(F)F)c1 (stereo in doubt) [Compound 1-19, Racemic-trans-(3-((4-(aminomethyl)-6-(trifluoromethyl)pyridin-2-yl)oxy)phenyl)(3-fluoro-4-hydroxypyrrolidin-1-yl)methanone hydrochloride]	< 0.3	efficacious	efficacious
NCc1cc(Oc2cccc(C(=O)NCCn3cncn3)c2)nc(C(F)(F)F)c1 [Compound 1-14, N-(2-(1H-1,2,4-Triazol-1-yl)ethyl)-3-((4-(aminomethyl)-6-(trifluoromethyl)pyridin-2-yl)oxy)benzamide hydrochloride]	< 0.3		
NCc1cc(Oc2cc(O)cc(C(=O)N3C[C@@H](O)[C@H](F)C3)c2)nc(C(F)(F)F)c1 (racemic) [Compound 1-230, Racemic-trans-(3-((4-(aminomethyl)-6-(trifluoromethyl)pyridin-2-yl)oxy)-5-hydroxyphenyl)(3-fluoro-4-hydroxypyrrolidin-1-yl)methanone hydrochloride]	< 0.3		
NCc1cc(Oc2cccc(C(=O)N3CCC(CO)CC3)c2)nc(C(F)(F)F)c1 [Compound 1-204, (3-((4-(Aminomethyl)-6-(trifluoromethyl)pyridin-2-yl)oxy)phenyl)(4-(hydroxymethyl)piperidin-1-yl)methanone hydrochloride]	< 0.3		
NCc1cc(Oc2cccc(C(=O)Nc3cncnc3)c2)nc(C(F)(F)F)c1 [Compound 1-226, 3-((4-(Aminomethyl)-6-(trifluoromethyl)pyridin-2-yl)oxy)-N-(pyrimidin-5-yl)benzamide hydrochloride]	< 0.3		
CCOC(=O)CN1C(=O)CCc2c(Oc3cc(CN)cc(C(F)(F)F)n3)cccc21 [Compound 1-235, Ethyl 2-(5-((4-(aminomethyl)-6-(trifluoromethyl)pyridin-2-yl)oxy)-2-oxo-3,4-dihydroquinolin-1(2H)-yl)acetate]	0.3 to 1		
NCc1cc(Oc2cccc(C(=O)NCc3ccc(F)cc3)c2)nc(C(F)(F)F)c1 [Compound 1-9, 3-((4-(Aminomethyl)-6-(trifluoromethyl)pyridin-2-yl)oxy)-N-(4-fluorobenzyl)benzamide hydrochloride]	< 0.3		
NCc1cc(Oc2cccc(C(=O)N3CC[C@H](O)C3)c2)nc(C(F)(F)F)c1 [Compound 1-17, (S)-(3-((4-(Aminomethyl)-6-(trifluoromethyl)pyridin-2-yl)oxy)phenyl)(3-hydroxypyrrolidin-1-yl)methanone hydrochloride]	< 0.3		
NCc1cc(Oc2cccc(C(=O)N3CCc4ccccc4C3)c2)nc(C(F)(F)F)c1 [Compound 1-11, (3-((4-(Aminomethyl)-6-(trifluoromethyl)pyridin-2-yl)oxy)phenyl)(3,4-dihydroisoquinolin-2(1H)-yl)methanone hydrochloride]	< 0.3		
CN(C)CCNC(=O)c1cccc(Oc2cc(CN)cc(C(F)(F)F)n2)c1 [Compound 1-35, 3-((4-(Aminomethyl)-6-(trifluoromethyl)pyridin-2-yl)oxy)-N-(2-(dimethylamino)ethyl)benzamide dihydrochloride]	< 0.3		

Second part, led by results:

IC50 (human LOXL2) [µM]	SMILES	efficacy in bleomycin lung fibrosis model, prophylactic dosing [1]	efficacy in bleomycin lung fibrosis model, therapeutic dosing [1]
< 0.3	Cl.NCc1cc(Oc2cccc(C(=O)N3C[C@H](O)[C@@H](F)C3)c2)nc(C(F)(F)F)c1 (stereo in doubt) [Compound 1-20, (S,S)-trans-(3-((4-(Aminomethyl)-6-(trifluoromethyl)pyridin-2-yl)oxy)phenyl)(3-fluoro-4-hydroxypyrrolidin-1-yl)methanone hydrochloride]	efficacious	efficacious
> 1	Cc1cc(=O)n(Cc2cc(CN)cc(C(F)(F)F)n2)c(=O)n1CCO [Compound 1-135, 3-((4-(Aminomethyl)-6-(trifluoromethyl)pyridin-2-yl)methyl)-1-(2-hydroxyethyl)-6-methylpyrimidine-2,4(1H,3H)-dione hydrochloride]		
0.3 to 1	CC(=O)N1CCC2(CC(Oc3cc(CN)cc(C(F)(F)F)n3)C2)C1 (stereo not shown) [Compound 1-244, 1-(2-((4-(Aminomethyl)-6-(trifluoromethyl)pyridin-2-yl)oxy)-6-azaspiro[3.4]octan-6-yl)ethanone hydrochloride]		
0.3 to 1	NCc1cc(OC[C@H]2CCCN(C(=O)Nc3ccccc3)C2)nc(C(F)(F)F)c1 [Compound 1-45, (S)-3-(((4-(Aminomethyl)-6-(trifluoromethyl)pyridin-2-yl)oxy)methyl)-N-phenylpiperidine-1-carboxamide trifluoroacetate]		
< 0.3	NCc1cc(Oc2cccc(C(=O)N3CC=CC3)c2)nc(C(F)(F)F)c1 [Compound 1-215, (3-((4-(Aminomethyl)-6-(trifluoromethyl)pyridin-2-yl)oxy)phenyl)(2,5-dihydro-1H-pyrrol-1-yl)methanone hydrochloride]		
< 0.3	CC(C)C(=O)N1CCC[C@H](Oc2cc(CN)cc(C(F)(F)F)n2)C1 [Compound 1-52, (S)-1-(3-((4-(Aminomethyl)-6-(trifluoromethyl)pyridin-2-yl)oxy)piperidin-1-yl)-2-methylpropan-1-one trifluoroacetate]		
< 0.3	Cl.NCc1cc(Oc2cccc3c2CCC(=O)N3)nc(C(F)(F)F)c1 [Compound 1-59, 5-((4-(Aminomethyl)-6-(trifluoromethyl)pyridin-2-yl)oxy)-3,4-dihydroquinolin-2(1H)-one hydrochloride]	efficacious	
< 0.3	NCc1cc(O[C@H]2CCN(C(=O)Nc3ccccc3)C2)nc(C(F)(F)F)c1 [Compound 1-40, (S)-3-((4-(Aminomethyl)-6-(trifluoromethyl)pyridin-2-yl)oxy)-N-phenylpyrrolidine-1-carboxamide trifluoroacetate]		
< 0.3	CS(=O)(=O)CCNC(=O)c1cccc(Oc2cc(CN)cc(C(F)(F)F)n2)c1.Cl [Compound 1-30, 3-((4-(Aminomethyl)-6-(trifluoromethyl)pyridin-2-yl)oxy)-N-(2-(methylsulfonyl)ethyl)benzamide hydrochloride]	efficacious	
0.3 to 1	NCc1cc(OC2CCN(C(=O)Nc3ccccc3)CC2)nc(C(F)(F)F)c1 [Compound 1-41, 4-((4-(Aminomethyl)-6-(trifluoromethyl)pyridin-2-yl)oxy)-N-phenylpiperidine-1-carboxamide trifluoroacetate]		
0.3 to 1	Cc1nnc(C(=O)N2CCC[C@H](Oc3cc(CN)cc(C(F)(F)F)n3)C2)o1 [Compound 1-51, (S)-(3-((4-(Aminomethyl)-6-(trifluoromethyl)pyridin-2-yl)oxy)piperidin-1-yl)(5-methyl-1,3,4-oxadiazol-2-yl)methanone trifluoroacetate]		
